In patent US4051237A, “Glycopeptide antibiotics Bu-2231 A and B and process for producing same” (priority 1975, dated 1977):
≈ marks a conversion by molar mass, not a printed value.

Legend:
Format in all cases: cell-based
C. albicans Nystatin-R = test: MIC by two-fold agar dilution; settings: Ca-2 C. albicans Nystatin-R; sabouraud agar; unit assumed
S. cerevisiae IAM 4009 = test: MIC by two-fold agar dilution; settings: Sc-2 S. cerevisiae IAM 4009; sabouraud agar; unit assumed
Sporotrichum sp. = test: MIC by two-fold agar dilution; settings: Sy-1 Sporotrichum sp.; sabouraud agar; unit assumed
M. flavus D12 = test: MIC by two-fold agar dilution; settings: Mueller-Hinton agar, unit assumed
C. lunata ATCC 13432 = test: MIC by two-fold agar dilution; settings: Cl-1 C. lunata ATCC 13432; sabouraud agar; unit assumed
P. aeruginosa A 9923 = test: MIC by two-fold agar dilution; settings: Mueller-Hinton agar, unit assumed
[1] = system: C. tropicalis #125 A15051; test: MIC by two-fold agar dilution; settings: Ct-4 C. tropicalis #125 A15051; sabouraud agar; unit assumed
S. cerevisiae ATCC 9763 = test: MIC by two-fold agar dilution; settings: Sc-1 S. cerevisiae ATCC 9763; sabouraud agar; unit assumed
[2] = system: Mycobacterium ranae, ATCC110; test: MIC by two-fold agar dilution; settings: Medium #1001, unit assumed
B. cereus ATCC 10702A = test: MIC by two-fold agar dilution; settings: Mueller-Hinton agar, unit assumed
K. pneumoniae A20680 = test: MIC by two-fold agar dilution; settings: Mueller-Hinton agar, unit assumed
P morganii A9553 = test: MIC by two-fold agar dilution; settings: Mueller-Hinton agar, unit assumed
Mucor sp. = test: MIC by two-fold agar dilution; settings: My-1 Mucor sp.; sabouraud agar; unit assumed
P. citrinum IAM 7008 = test: MIC by two-fold agar dilution; settings: Pt-1 P. citrinum IAM 7008; sabouraud agar; unit assumed
P. rettgeri A15167 = test: MIC by two-fold agar dilution; settings: Mueller-Hinton agar, unit assumed
S. marcescens A20019 = test: MIC by two-fold agar dilution; settings: Mueller-Hinton agar, unit assumed
P. aeruginosa H9, D113 = test: MIC by two-fold agar dilution; settings: Mueller-Hinton agar, unit assumed
S. aureus 209P = test: MIC by two-fold agar dilution; settings: Mueller-Hinton agar, unit assumed
C. tropicalis IAM 4157 = test: MIC by two-fold agar dilution; settings: Ct-1 C. tropicalis IAM 4157; sabouraud agar; unit assumed
S. marcescens A20460 = test: MIC by two-fold agar dilution; settings: Mueller-Hinton agar, unit assumed
K. pneumoniae A20328 = test: MIC by two-fold agar dilution; settings: Mueller-Hinton agar, unit assumed
P. aeruginosa A9930 = test: MIC by two-fold agar dilution; settings: Mueller-Hinton agar, unit assumed
A. niger var Tieghem = test: MIC by two-fold agar dilution; settings: An-1 A. niger var Tieghem; sabouraud agar; unit assumed
Hormodendrum sp. = test: MIC by two-fold agar dilution; settings: Hy-1 Hormodendrum sp.; sabouraud agar; unit assumed
C. neoformans (Cn-1) = test: MIC by two-fold agar dilution; settings: Cn-1 C. neoformans; sabouraud agar; unit assumed
S. aureus A20239 = test: MIC by two-fold agar dilution; settings: Mueller-Hinton agar, unit assumed
P. mirabilis A9554 = test: MIC by two-fold agar dilution; settings: Mueller-Hinton agar, unit assumed
B. subtilis PCI-219 = test: MIC by two-fold agar dilution; settings: Mueller-Hinton agar, unit assumed
M. canis D-51 = test: MIC by two-fold agar dilution; settings: Mc-1 M. canis D-51; sabouraud agar; unit assumed
[3] = system: C. albicans #520 Yale A9540; test: MIC by two-fold agar dilution; settings: Ca-4 C. albicans #520 Yale A9540; sabouraud agar; unit assumed
Mycobacterium 607, D47 = test: MIC by two-fold agar dilution; settings: Medium #1001, unit assumed
K. pneumoniae A9678 = test: MIC by two-fold agar dilution; settings: Mueller-Hinton agar, unit assumed
K. pneumoniae D11 = test: MIC by two-fold agar dilution; settings: Mueller-Hinton agar, unit assumed
P. stuartii A20734 = test: MIC by two-fold agar dilution; settings: Mueller-Hinton agar, unit assumed
E. coli A20732 = test: MIC by two-fold agar dilution; settings: Mueller-Hinton agar, unit assumed
C. neoformans IAM 4514 = test: MIC by two-fold agar dilution; settings: Cn-2 C. neoformans IAM 4514; sabouraud agar; unit assumed
B. mycoides "0" = settings: Mueller-Hinton agar, unit assumed
P. vulgaris A9436 = test: MIC by two-fold agar dilution; settings: Mueller-Hinton agar, unit assumed
S. aureus #193 = test: MIC by two-fold agar dilution; settings: Mueller-Hinton agar, unit assumed
B. anthracis 115 = settings: Mueller-Hinton agar, unit assumed
S. aureus Smith A9537 = test: MIC by two-fold agar dilution; settings: Mueller-Hinton agar, unit assumed
A. fumigatus IAM 2530 = test: MIC by two-fold agar dilution; settings: Af-1 A. fumigatus IAM 2530; sabouraud agar; unit assumed
Verticillium sp. = test: MIC by two-fold agar dilution; settings: Vx-1 Verticillium sp.; sabouraud agar; unit assumed
S. marcescens A20333 = test: MIC by two-fold agar dilution; settings: Mueller-Hinton agar, unit assumed
E. cloacae A21006 = test: MIC by two-fold agar dilution; settings: Mueller-Hinton agar, unit assumed
T. rubrum D-55 = test: MIC by two-fold agar dilution; settings: Tr-1 T. rubrum D-55; sabouraud agar; unit assumed

Bleomycin [reference compound]
MIC (C. albicans Nystatin-R): 12.5 µg/mL
MIC (S. cerevisiae IAM 4009): 0.4 µg/mL
MIC (Sporotrichum sp.): > 100 µg/mL
MIC (M. flavus D12): 50 µg/mL
MIC (C. lunata ATCC 13432): 0.1 µg/mL
MIC (P. aeruginosa A 9923): > 100 µg/mL
MIC [1]: > 100 µg/mL
MIC (S. cerevisiae ATCC 9763): 0.8 µg/mL
MIC [2]: 0.8 µg/mL
MIC (B. cereus ATCC 10702A): 1.6 µg/mL
MIC (K. pneumoniae A20680): > 100 µg/mL
MIC (P morganii A9553): > 100 µg/mL
MIC (Mucor sp.): 3.1 µg/mL
MIC (P. citrinum IAM 7008): > 100 µg/mL
MIC (P. rettgeri A15167): > 100 µg/mL
MIC (S. marcescens A20019): > 100 µg/mL
MIC (P. aeruginosa H9, D113): > 100 µg/mL
MIC (S. aureus 209P): 6.3 µg/mL
MIC (C. tropicalis IAM 4157): 12.5 µg/mL
MIC (S. marcescens A20460): > 100 µg/mL
MIC (K. pneumoniae A20328): 25 µg/mL
MIC (P. aeruginosa A9930): > 100 µg/mL
MIC (A. niger var Tieghem): 0.4 µg/mL
MIC (Hormodendrum sp.): 0.8 µg/mL
MIC (C. neoformans (Cn-1)): 1.6 µg/mL
MIC (S. aureus A20239): 12.5 µg/mL
MIC (P. mirabilis A9554): 50 µg/mL
MIC (B. subtilis PCI-219): < 0.0063 µg/mL
MIC (M. canis D-51): > 100 µg/mL
MIC [3]: > 100 µg/mL
MIC (Mycobacterium 607, D47): 0.4 µg/mL
MIC (K. pneumoniae A9678): 6.3 µg/mL
MIC (K. pneumoniae D11): 0.2 µg/mL
MIC (P. stuartii A20734): > 100 µg/mL
MIC (E. coli A20732): 1.6 µg/mL
MIC (C. neoformans IAM 4514): 1.6 µg/mL
MIC (B. mycoides "0"): 12.5 µg/mL
MIC (P. vulgaris A9436): 6.3 µg/mL
MIC (S. aureus #193): 12.5 µg/mL
MIC (B. anthracis 115): 12.5 µg/mL
MIC (S. aureus Smith A9537): 3.1 µg/mL
MIC (A. fumigatus IAM 2530): 0.8 µg/mL
MIC (Verticillium sp.): 6.3 µg/mL
MIC (S. marcescens A20333): > 100 µg/mL
MIC (E. cloacae A21006): > 100 µg/mL
MIC (T. rubrum D-55): > 100 µg/mL

Cc1c(N)nc([C@H](CC(N)=O)NC[C@H](N)C(N)=O)nc1C(=O)N[C@H](C(=O)N[C@H](C)[C@@H](O)CC(=O)N[C@H](C(=O)NC(O[C@@H]1O[C@@H](C)[C@@H](N)[C@@H](O)[C@H]1O)C(O)c1nc(-c2nc(C(=O)NCCCC(N)CC(=O)NCCCNCCCCN)cs2)cs1)[C@@H](C)O)[C@H](O[C@@H]1O[C@@H](CO)[C@@H](O)[C@H](O)[C@@H]1O[C@H]1O[C@H](CO)[C@@H](O)[C@H](OC(N)=O)[C@@H]1O)c1c[nH]cn1 (some centres unmarked) [Bu-2231 A Cu-free]
MIC (C. albicans Nystatin-R): 0.8 µg/mL (≈ 0.462 µM)
MIC (S. cerevisiae IAM 4009): 0.4 µg/mL (≈ 0.231 µM)
MIC (Sporotrichum sp.): 3.1 µg/mL (≈ 1.79 µM)
MIC (M. flavus D12): 0.2 µg/mL (≈ 0.115 µM)
MIC (C. lunata ATCC 13432): 0.8 µg/mL (≈ 0.462 µM)
MIC (P. aeruginosa A 9923): 50 µg/mL (≈ 28.9 µM)
MIC [1]: 0.8 µg/mL (≈ 0.462 µM)
MIC (S. cerevisiae ATCC 9763): 0.4 µg/mL (≈ 0.231 µM)
MIC [2]: 0.1 µg/mL (≈ 0.0577 µM)
MIC (B. cereus ATCC 10702A): 0.2 µg/mL (≈ 0.115 µM)
MIC (K. pneumoniae A20680): 6.3 µg/mL (≈ 3.64 µM)
MIC (P morganii A9553): 0.4 µg/mL (≈ 0.231 µM)
MIC (Mucor sp.): 6.3 µg/mL (≈ 3.64 µM)
MIC (P. citrinum IAM 7008): 1.6 µg/mL (≈ 0.924 µM)
MIC (P. rettgeri A15167): 0.4 µg/mL (≈ 0.231 µM)
MIC (S. marcescens A20019): 0.4 µg/mL (≈ 0.231 µM)
MIC (P. aeruginosa H9, D113): > 100 µg/mL
MIC (S. aureus 209P): 0.1 µg/mL (≈ 0.0577 µM)
MIC (C. tropicalis IAM 4157): 0.8 µg/mL (≈ 0.462 µM)
MIC (S. marcescens A20460): 0.4 µg/mL (≈ 0.231 µM)
MIC (K. pneumoniae A20328): 0.8 µg/mL (≈ 0.462 µM)
MIC (P. aeruginosa A9930): 0.4 µg/mL (≈ 0.231 µM)
MIC (A. niger var Tieghem): 0.2 µg/mL (≈ 0.115 µM)
MIC (Hormodendrum sp.): 0.8 µg/mL (≈ 0.462 µM)
MIC (C. neoformans (Cn-1)): 0.4 µg/mL (≈ 0.231 µM)
MIC (S. aureus A20239): 0.2 µg/mL (≈ 0.115 µM)
MIC (P. mirabilis A9554): 0.1 µg/mL (≈ 0.0577 µM)
MIC (B. subtilis PCI-219): < 0.0063 µg/mL
MIC (M. canis D-51): 3.1 µg/mL (≈ 1.79 µM)
MIC [3]: 3.1 µg/mL (≈ 1.79 µM)
MIC (Mycobacterium 607, D47): 0.1 µg/mL (≈ 0.0577 µM)
MIC (K. pneumoniae A9678): 0.2 µg/mL (≈ 0.115 µM)
MIC (K. pneumoniae D11): < 0.0063 µg/mL
MIC (P. stuartii A20734): 0.4 µg/mL (≈ 0.231 µM)
MIC (E. coli A20732): 0.05 µg/mL (≈ 0.0289 µM)
MIC (C. neoformans IAM 4514): 0.4 µg/mL (≈ 0.231 µM)
MIC (B. mycoides "0"): 0.2 µg/mL (≈ 0.115 µM)
MIC (P. vulgaris A9436): 0.2 µg/mL (≈ 0.115 µM)
MIC (S. aureus #193): 0.1 µg/mL (≈ 0.0577 µM)
MIC (B. anthracis 115): 0.05 µg/mL (≈ 0.0289 µM)
MIC (S. aureus Smith A9537): 0.1 µg/mL (≈ 0.0577 µM)
MIC (A. fumigatus IAM 2530): 0.8 µg/mL (≈ 0.462 µM)
MIC (Verticillium sp.): 3.1 µg/mL (≈ 1.79 µM)
MIC (S. marcescens A20333): 0.2 µg/mL (≈ 0.115 µM)
MIC (E. cloacae A21006): 1.6 µg/mL (≈ 0.924 µM)
MIC (T. rubrum D-55): 3.1 µg/mL (≈ 1.79 µM)
